Laboratory results: PMC6366420, “Design and synthesis of 4-piperazinyl quinoline derived urea/thioureas for anti-breast cancer activity by a hybrid pharmacophore approach” (Journal of Enzyme Inhibition and Medicinal Chemistry, 2019)
Read-outs that look alike come from different tables or passages of the source.

Columns and labels:
[1] = system: MDA-MB231; assay: SRB antiproliferative assay, MDA-MB231; type: cell-based, human; details: SRB, 48 h incubation, MDA-MB231 triple-negative breast cancer cells, read-out: GI50 MDA-MB231
Procedure: (§1) The human breast cancer cell lines MDA-MB468, MDA-MB231 and MCF-7 were purchased from ATCC and maintained in RPMI 1640 medium supplemented with 10% fetal bovine serum (Hyclone, Logan UT) and 2 mM L-glutamine. MCF10A and 184B5 immortalised breast cells were purchased from ATCC and maintained in mammary epithelial basal medium supplemented with an MEGM mammary epithelial singlequot kit (Cambrex). Cells were grown at 37 °C with 5% CO2, 95% air under the humidified conditions. Cell line authentication was carried out by Genetica DNA Laboratories (Burlington, NC) using a short tandem repeat profiling method (March 2015; July 2015; September 2016).
(§2) Cell cytotoxic effects were determined by a SRB-based protocol[2]^,[25].
(§3) The newly synthesised 4-piperazinylquinoline compounds (5–30) were evaluated for their antiproliferative effects using three breast cancer cell lines, for which the compounds were diluted to achieve seven different concentrations ranging from […]. Followed by 48 h incubation with the compound, cells were treated with sulforhodamine B (SRB) to measure their growth/viability (% of the untreated control) by spectrophotometer. The total cellular macromolecules levels known to accurately reflect by UV reading of SRB staining. […] The reference compounds CQ and cisplatin were included for the comparison.

[2] = system: 184B5; assay: SRB antiproliferative assay, 184B5 non-cancer breast cells; type: cell-based, human; details: Homo sapiens; SRB, 48 h incubation, 184B5 non-cancer immortalised breast cells; read-out: GI50 184B5
Procedure: as §1, §2, §3
(§4) We further assessed their antiproliferative effects on two non-cancer immortalised cell lines (184B5 and MCF10A). […] The antiproliferative effects of compound 23 on cancer cells are thus 7-fold (MDA-MB468 vs MCF10A) to 11-fold (MDA-MB231 vs 184B5) higher than matching non-cancer breast cells, which may indicate that compound 23 could potentially be safer than other compounds. Therefore, we examined it further to gain insights into its molecular mechanism of action.

[3] = system: MCF7 breast cancer cells; assay: Plasma membrane integrity staining (EtBr, AO, CellMask) of MCF7 cells; type: cell-based, human
Procedure: (§5) Lysosomal and AO staining were carried out as described previously. Mitochondrial staining with MitoTracker was carried out as described previously. Briefly, cells were plated on a poly-D-lysine pre-coated 1.8-cm sterile glass coverslip that had been placed in a well of a 6-well clustered dish. Cells were then incubated with 50 nM MitoTracker Red (ThermoFisher) for 30 min in a cell culture incubator. Plasma membrane staining was carried out with lipid-specific CellMask (Molecular probes, Life Technologies), according to the manufacturer’s instruction. For actin staining, cells fixed with 4% formaldehyde were incubated with phalloidin conjugated with Fitc (green) for 30 min. For nuclear staining, cells were incubated with 5 µM of DRAQ5 (blue) for 5 min.
However, it is currently unclear how lipid molecules are found throughout the entire cytoplasm. […] In addition, cells treated with compound 23 are often enlarged and flattened, and contained multi-nuclei. In addition, many small vacuoles are found in the cytoplasm of these cells (Figure 4(a–c)). All of these phenomena are likely leading to eventual cancer cell demise in the presence of compound 23.
Figure 4. […] (a) MCF7 cell morphology changes in the presence of compound 23. MCF7 cells were sham treated or treated with compound 23 for 48 h, followed by staining with either EtBr. […]

[4] = system: MCF10A; assay: SRB antiproliferative assay, MCF10A non-cancer breast cells; type: cell-based, human; details: Homo sapiens, MCF-10A; SRB, 48 h incubation, MCF10A non-cancer immortalised breast cells; read-out: GI50 MCF10A
Procedure: as §1, §2, §3, §4

[5] = system: MCF7 cells; assay: Mitochondrial (MitoTracker) and lysosomal (LysoTracker) staining of MCF7 cells; type: cell-based, human
Procedure: as §5
It should be noted that these abnormalities could occur if the membranes of these organelles are compromised. Thus, the molecular target of compound 23 is likely a common element found in the membranes of cytoplasm, mitochondria and lysosomes, but not in the nuclear membrane as it is not compromised in the presence of compound 23 (Figures 4–6).
Figure 5. Mitochondrial membrane may be compromised in the presence of compound 23. […] (b) Mitochondria are aggregated and disorganized in the presence of compound 23. MCF7 mitochondria and nuclei were stained with MitoTracker and DRAQ5, respectively, as descried in Materials and methods.
Figure 6. […]

[6] = system: breast cancer and non-cancer breast cell lines; assay: SRB antiproliferative comparison of breast cancer and non-cancer breast cell lines; type: cell-based, human; details: for higher activity than the reference compounds cisplatin and CQ: breast cancer cell lines, GI50 comparison; for antigrowth effect against cancer versus non-cancer cells (in words): three breast cancer lines vs 184B5 and MCF10A
Procedure: as §1, §2, §3, §4

[7] = system: MCF7; assay: SRB antiproliferative assay, MCF7; type: cell-based, human; details: Homo sapiens; SRB, 48 h incubation, MCF7 breast cancer cells; read-out: GI50 MCF7
Procedure: as §1, §2, §3

[8] = system: MDA-MB468; assay: SRB antiproliferative assay, MDA-MB468; type: cell-based, human; details: SRB, 48 h incubation, MDA-MB468 breast cancer cells, read-out: GI50 MDA-MB468
Procedure: as §1, §2, §3

Row | Structure (SMILES) | GI50 ([1]; Homo sapiens, MDA-MB-231, 48 h) [µM] | GI50 [1] [µM] | melting point [°C] | GI50 [7] [µM] | GI50 ([8]; Homo sapiens, MDA-MB-468, 48 h) [µM] | GI50 [8] [µM] | GI50 [2] [µM] | cells showing compromised plasma membrane phenotypes ([3]; MCF7, of 500 cells examined, 24-h post treatment) [%] | ethidium bromide uptake / plasma membrane integrity (in words) ([3]; MCF7 cells, treated 48 h, vs Sham control) | GI50 [4] [µM] | mitochondrial and lysosomal volumes (in words) [5] | antiproliferative effect on cancer cells higher than matching non-cancer breast cells ([6]; MDA-MB231 vs 184B5) [fold] | antiproliferative effect on cancer cells higher than matching non-cancer breast cells ([6]; MDA-MB468 vs MCF10A) [fold] | higher activity than the reference compounds cisplatin and CQ [6] | antigrowth/cell-killing activity higher on cancer than non-cancer cells ([6]; overall range, cancer vs non-cancer breast cells) | antigrowth effect against cancer versus non-cancer cells (in words) [6]
1 | O=C(Nc1cccc2ccccc12)N1CCN(c2ccnc3cc(Cl)ccc23)CC1 [Compound 9, 4-(7-Chloro-quinolin-4-yl)-piperazine-1-carboxylic acid naphthalen-1-ylamide] | 9.1 ± 1 |  | 138 to 139 | 9.4 ± 0.8 | 7.1 |  | 21.8 ± 1 |  |  | 21.8 ± 1 |  |  |  | 4-8 fold |  | much stronger activities against cancer than non-cancer cells
2 | FC(F)(F)c1ccc(NC(=S)N2CCN(c3ccnc4cc(Cl)ccc34)CC2)cc1 [Compound 19, 4-(7-Chloro-quinolin-4-yl)-piperazine-1-carbothioic acid (4-trifluoromethyl-phenyl)-amide] | 14.9 ± 1.1 |  | 112 to 113 | 4.9 ± 0.4 | 7.8 ± 0.8 |  | 3.7 ± 0.1 |  |  | 3.1 ± 0.1 |  |  |  |  |  | higher activity against non-cancer cells than cancer cells
3 | Cc1ccc(C)c(NC(=O)N2CCN(c3ccnc4cc(C(F)(F)F)ccc34)CC2)c1 [Compound 12, 4-(7-Trifluoromethyl-quinolin-4-yl)-piperazine-1-carboxylic acid (2,5-dimethyl-phenyl)-amide] | 39.6 ± 2.1 |  | 108 to 109 | 22.5 ± 1.4 | 21.7 ± 1 |  | 7.6 ± 0.7 |  |  | 8.8 ± 0.9 |  |  |  |  |  | higher activity against non-cancer cells than cancer cells
4 | O=C(Nc1ccccc1)N1CCN(c2ccnc3cc(Cl)ccc23)CC1 [Compound 5, 4-(7-Chloro-quinolin-4-yl)-piperazine-1-carboxylic acid phenylamide] | 5.3 ± 0.5 |  | 142 to 143 | 6.6 ± 0.6 | 4.7 ± 0.5 |  | 14.1 ± 0.9 |  |  | 11.8 ± 1.4 |  |  |  | 4-8 fold |  | much stronger activities against cancer than non-cancer cells
5 | S=C(Nc1ccccc1)N1CCN(c2ccnc3cc(Cl)ccc23)CC1 [Compound 17, 4-(7-Chloro-quinolin-4-yl)-piperazine-1-carbothioic acid phenylamide] | 4.8 ± 0.2 |  | 171 to 172 | 4.9 ± 0.3 | 11.8 ± 0.6 |  | 19.2 ± 1.6 |  |  | 13.9 ± 1.3 |  |  |  |  |  | much stronger activities against cancer than non-cancer cells
6 | O=C(Nc1ccccc1)N1CCN(c2ccnc3cc(C(F)(F)F)ccc23)CC1 [Compound 11, 4-(7-Trifluoromethyl-quinolin-4-yl)-piperazine-1-carboxylic acid phenylamide] | 20.6 ± 1.4 |  | 146 to 147 | 11 ± 0.6 | 57.6 ± 3.2 |  | 12.2 ± 1.3 |  |  | 21.1 ± 1.6 |  |  |  |  |  | comparable against cancer and non-cancer cells

Continued, in another order:

Row | GI50 ([1]; Homo sapiens, MDA-MB-231, 48 h) [µM] | GI50 [1] [µM] | melting point [°C] | GI50 [7] [µM] | GI50 ([8]; Homo sapiens, MDA-MB-468, 48 h) [µM] | GI50 [8] [µM] | Structure (SMILES) | GI50 [2] [µM] | cells showing compromised plasma membrane phenotypes ([3]; MCF7, of 500 cells examined, 24-h post treatment) [%] | ethidium bromide uptake / plasma membrane integrity (in words) ([3]; MCF7 cells, treated 48 h, vs Sham control) | GI50 [4] [µM] | mitochondrial and lysosomal volumes (in words) [5] | antiproliferative effect on cancer cells higher than matching non-cancer breast cells ([6]; MDA-MB231 vs 184B5) [fold] | antiproliferative effect on cancer cells higher than matching non-cancer breast cells ([6]; MDA-MB468 vs MCF10A) [fold] | higher activity than the reference compounds cisplatin and CQ [6] | antigrowth/cell-killing activity higher on cancer than non-cancer cells ([6]; overall range, cancer vs non-cancer breast cells) | antigrowth effect against cancer versus non-cancer cells (in words) [6]
7 | 5.3 | 3 ± 0.1 | 114 to 115 | 4.5 ± 0.1 | 4.7 | 4.6 ± 0.6 | S=C(NCCN1CCOCC1)N1CCN(c2ccnc3cc(Cl)ccc23)CC1 [Compound 23, 4-(7-Chloro-quinolin-4-yl)-piperazine-1-carbothioic acid (2-morpholin-4-yl-ethyl)-amide] | 34.4 ± 0.6 | 42.4 ± 4.8 | readily uptake ethidium bromide | 32.3 ± 0.8 | substantial increases in mitochondrial and lysosomal volumes | 11 | 7 | 4-8 fold | 7-11 fold | much stronger activities against cancer than non-cancer cells
8 | 18.7 ± 2.3 |  | 165 to 166 | 7 ± 0.7 | 11.8 ± 1.6 |  | FC(F)(F)c1ccc2c(N3CCN(C(=S)Nc4ccc(Cl)cc4)CC3)ccnc2c1 [Compound 27, 4-(7-Trifluoromethyl-quinolin-4-yl)-piperazine-1-carbothioic acid (4-chloro-phenyl)-amide] | 7.9 ± 0.6 |  |  | 9.2 ± 1 |  |  |  |  |  | comparable against cancer and non-cancer cells
9 | 22.2 ± 1.7 |  | 105 to 106 | 5.2 ± 0.5 | 13.3 ± 0.3 |  | Cc1cccc(C)c1NC(=S)N1CCN(c2ccnc3cc(C(F)(F)F)ccc23)CC1 [Compound 25, 4-(7-Trifluoromethyl-quinolin-4-yl)-piperazine-1-carbothioic acid (2,6-dimethyl-phenyl)-amide] | 21.4 ± 1.3 |  |  | 14.1 ± 1.5 |  |  |  |  |  | comparable against cancer and non-cancer cells
10 | 13.8 ± 0.8 |  | 187 to 188 | 7.5 ± 0.6 | 14.1 ± 0.9 |  | FC(F)(F)c1ccc2c(N3CCN(C(=S)Nc4ccccc4)CC3)ccnc2c1 [Compound 24, 4-(7-Trifluoromethyl-quinolin-4-yl)-piperazine-1-carbothioic acid phenylamide] | 24.4 ± 2 |  |  | 34.2 ± 1.3 |  |  |  |  |  | much stronger activities against cancer than non-cancer cells
11 | 7.7 ± 0.5 |  | 132 to 133 | 4 ± 0.3 | 5.1 ± 0.2 |  | S=C(Nc1c(Cl)cc(Cl)cc1Cl)N1CCN(c2ccnc3cc(Cl)ccc23)CC1 [Compound 21, 4-(7-Chloro-quinolin-4-yl)-piperazine-1-carbothioic acid (2,4,6-trichloro-phenyl)-amide] | 4.7 ± 0.3 |  |  | 6.8 ± 0.6 |  |  |  |  |  | comparable against cancer and non-cancer cells
12 | 11.8 ± 0.9 |  | 134 to 135 | 6.2 ± 0.7 | 14.2 ± 0.6 |  | FC(F)(F)c1ccc2c(N3CCN(C(=S)NCCN4CCOCC4)CC3)ccnc2c1 [Compound 30, 4-(7-Trifluoromethyl-quinolin-4-yl)-piperazine-1-carbothioic acid (2-morpholin-4-yl-ethyl)-amide] | 17.4 ± 1 |  |  | 18.9 ± 1.3 |  |  |  |  |  | much stronger activities against cancer than non-cancer cells
